How the values were obtained:
[1] = system: skin injury following radiotherapy in patients with head and neck cancer; conditions: mucoadhesive buccal tablet 50 μg once daily, from 1 to 3 days before radiotherapy until its end, up to 8 weeks; 50 to 70 Gray plus platinum-based chemotherapy; placebo group 38.7%
Method: These patients received, within 15 weeks after curative surgery, a cumulative radiation dose of radiation ranging from 50 to 70 Gray in oral cavity, based on a daily dosing between 1.8 and 2.2 Gy, combined with platinum-based chemotherapy, based on a weekly or tri-weekly cycle. Clonidine was administered in the form of a mucoadhesive tablet that was applied into the mouth, on the upper gum, for about 30 seconds, after which it remained in place for several hours. The treatment with clonidine hydrochloride started from 1 to 3 days before radiotherapy until the end of radiotherapy, for up to 8 weeks. Patients were evaluated twice a week during the radiotherapy period, then one month after stop of radiotherapy.

radiation skin injury = conditions: Journal of Clinical Oncology, Vol. 29, No 20, 2011; even worsened skin adverse reactions; cited from earlier work

Molecule	patients showing skin injury after treatment [1]	effect on radiation skin injury compared to a placebo (radiation skin injury)
Cl.Clc1cccc(Cl)c1NC1=NCCN1 [clonidine hydrochloride]	25.5%	
palifermin		not to improve radiation skin injury compared to a placebo
